In patent US20020197244A1, “Compositions and methods for regulating phagocytosis and ICAM-1 expression” (priority 1998, published 2002):

B1: STI: Soybean trypsin inhibitor, a serine protease inhibitor capable of affecting the PAR-2 pathway (protein, UniProt P01070 25-205, looked up)
Trypsin inhibitor A: DFVLDNEGNPLENGGTYYILSDITAFGGIRAAPTGNERCPLTVVQSRNELDKGIGTIISSPYRIRFIAEGHPLSLKFDSFAVIMLCVGIPTEWSVVEDLPEGPAVKIGENKDAMDGWFRLERVSDDEFNNYKLVFCPQQAEDDKCGDIGISIDHDDGTRRLVVSKNKPLVVQFQKLDKESL

Tests used:
[1] = tested on: macrophage cell line IC-21; test: Fluorescent microsphere ingestion by macrophages; assay type: cell-based; settings: IC-21 macrophages
Protocol: (§1) In this example, human primary keratinocytes or the human keratinocyte cell line HaCaT were used as in vitro model systems to study the effect of PAR-2 regulators on keratinocyte phagocytosis. The human primary keratinocytes used are commercially available from Clonetics (San Diego, Calif.). Cells were plated on chamber slides, at 2 chambers/slide and 60,000 cells/chamber. Cells were treated once daily, for two or three days, with Compound I (1μM), SLIGRL (10μM), or vehicle (Phosphate-buffered saline, (“PBS”) from Gibco-BRL (Gaithersburg, Md.). After two or three days of exposure to the test compounds, cells were exposed to Nile-red or FITC fluorescent microspheres, 1 μm in diameter, 50 microspheres/cell, for two hours at 37° C. Microspheres were from Molecular Probes (Eugene, Oreg.), and were processed according to manufacturer's instructions. Following that treatment, cells were incubated with 15% Fetal Bovine Serum (“FBS”, from Gibco-BRL), for 15 minutes at 37° C. and rinsed with PBS. At that time, chambers were separated from the slides, and the slides were covered with glycerol and coverslips. Fluorescent microscopy was performed using a Zeiss Axiovert 35 or a Nikon Optiphot-2 microscope.
The experiment described in Example 1 was repeated using the macrophage cell line IC-21 (obtained from the ATCC), which shares phagocytic characteristics with peritoneal macrophages. As shown for keratinocytes and fibroblasts, Compound I and STI reduced, and SLIGRL increased, the number of microspheres ingested by these macrophages which are “professional phagocytic” cells.

[2] = tested on: Keratinocytes; test: F-actin staining of keratinocytes; assay type: cell-based; settings: Compound I 10 nM, STI 0.1 mg/ml, SLIGRL 5 μM; FIG. 9
Protocol: Therefore, the organization of F-actin filaments following PAR-2 modulation was tested. Keratinocytes were treated with Compound I (10 nM), STI (0.1 mg/ml), or with SLIGRL (5 μM) as described in Example 1, and stained for F-actin using standard techniques.

[3] = tested on: ICAM-1; test: ICAM-1 immunofluorescent staining of keratinocytes; assay type: cell-based, human; settings: vs untreated keratinocytes; FIG. 6A
Protocol: Intercellular adhesion molecule-1 (ICAM-1) is an inducible cell-surface glycoprotein that is implicated in cell-cell adhesion, cell membrane raffling and phagocytosis. Therefore, the effect of PAR-2 modulation on ICAM-1 was tested. Keratinocytes were grown in chamber slides and treated with SLIGRL, Compound I and STI as described, followed by immunofluorescent staining for ICAM-1 using standard procedures. Normal donkey serum, (used at 1:5 dilution), was obtained from Jackson Immunoresearch Laboratory (Westgrove, Pa.). A polyclonal goat anti-human ICAM-1 antibody, (used at 1:200 dilution), was obtained from R&D Systems (Minneapolis, Minn.), and FITC-conjugated donkey anti-goat antibody was obtained from Jackson Immunoresearch Laboratory. […] In untreated keratinocytes, ICAM-1 was localized mainly to the plasma membrane, with some staining at the nuclear membrane.

[4] = tested on: Human keratinocytes; test: Keratinocyte microsphere phagocytosis dose-response, image analysis; assay type: cell-based; settings: two days; for phagocytosis with increasing concentrations: SLIGRL 0, 5 and 10M, Compound I 1 pM to 1 μM, STI 0.01 to 1 mg/ml; for % Ingestion: untreated = 100 +/− 12
Protocol: as §1
Dose-response Relationship Between PAR-2 Signaling and Keratinocyte Phagocytosis Human keratinocytes were treated with increasing concentrations of SLIGRL, the PAR-2 peptide activator and agonist, at 0, 5 and 10M for two days in the same manner as set forth in Example 1. […] Human keratinocytes were also treated with increasing concentrations of Compound I and STI for two days.
Image analysis of the fluorescent beads inside the keratinocytes was used as an alternative way to quantify the phagocytic effect in this system. Empire Imagins Database Version 1.1 was used on a Gateway 2000 P5-100 computer (Media Cybernetics, Silver Springs, Md.) for capturing images. Image Pro Plus version 1.3 was used for measurements, and Microsoft Excel version 5.0 was used for data processing. Data obtained from this keratinocyte-microsphere system were in full agreement with data from the macrophage/E. coli system.

[5] = tested on: human keratinocyte cell line HaCaT; test: Fluorescent microsphere ingestion by keratinocyte cell line HaCaT; assay type: cell-based; settings: FIG. 2
Protocol: In order to study the role of the PAR-2 pathway in phagocytosis, several in vitro model systems were used. One system used contained primary human keratinocytes or a human keratinocyte cell line. In this and a number of following examples, cells were treated with test compounds for different amounts of time (from one hour to three days), and samples were then incubated with fluorescent microspheres for two hours. The beads ingested by the cells were photographed using fluorescence microscopy.
as §1
The same results were also obtained when the human keratinocyte cell line HaCaT was used instead of the primary keratinocytes (see FIG. 2). SLIGRL, STI and Compound I were tested for their effect on keratinocyte phagocytosis. In these experiments, the extracellular accumulation of microspheres could be washed off. […]

[6] = tested on: Keratinocytes; test: Melanin/melanosome uptake by keratinocytes, Fontana-Mason staining; assay type: cell-based; settings: treated two days, melanin two hours; FIG. 5A; same results with isolated melanosomes (FIG. 5B)
Protocol: This example tests the ability of keratinocytes to acquire melanin or melanosomes in vitro, and thus function as a simplified system for melanosome uptake in the skin. Keratinocytes were plated in glass chamber-slides as described earlier, and were treated for two days with SLIGRL, Compound I or STI. At that time, melanin powder (from Sigma, St. Louis, Mo.) was mixed in sterile PBS at 10 μg/ml, and was added to the culture media (1:10 dilution) for two hours. Cells were then washed with PBS and stained with Fontana-Mason (“F&M”) staining. F&M stains silver nitrate-reducing molecules, thereby permitting the identification of melanins inside the keratinocytes. […] This system, therefore, can mimic melanosome transfer and melanin distribution in vivo, as skin keratinocytes use melanin as an UV-protective cap over their nuclei. […] The same results were also observed using melanosomes isolated as described in S. Orlow, et al., J.I.D. 100:55-64 (1993) (FIG. 5B).

[7] = tested on: macrophage cell line IC-21; test: Vybrant Phagocytosis Assay Kit, fluorescein-labeled E. coli K-12 particles; assay type: cell-based; settings: for % effect (ingestion): treated overnight, 100 nM Compound I, 5 μM SLIGRL, 0.1 mg/ml STI, untreated control = 100, one experiment of three; for phagocytosis, dose-response: STI 0, 0.01, 0.1, 1 mg/ml, Compound I 0.01, 0.1, 1 nM, FIG. 4A, 4B
Protocol: To better quantify the level of phagocytosis, the “Vybrant™ Phagocytosis Assay Kit” of Molecular Probes (Eugene, Oreg.) was used, following manufacturer's instructions, with modification of cell culture conditions for the IC-21 cell line. This kit uses Fluorescein-labeled E. coli K-12 particles, and is designed for quantifying the effects of drugs or other environmental factors on phagocytic functions. Macrophages were treated overnight with 100 nM of Compound I, 5 μM of SLIGRL, or 0.1 mg/ml of STI, all dissolved in PBS. The ability of the treated macrophages to ingest the fluorescent E. coli, as measured by this kit, is documented in Table 1. This experiment was repeated three times.
In order to verify the quantitative nature of the macrophage-phagocytosis assay, a dose-response experiment was performed. Macrophages were treated with 0, 0.01, 0.1 and 1 mg/ml of STI, and the experiment was performed as described in Example 3. […] Each experiment was repeated three times.

Molecule	number of microspheres ingested [1]	actin filaments organization [2]	intracellular localization of ICAM-1 [3]	phagocytosis with increasing concentrations [4]	microsphere ingestion [5]	uptake (internalization) of melanin by keratinocytes [6]	% effect (ingestion) [7]	phagocytosis, dose-response [7]	% Ingestion ([4]; STI 0.01%)	% Ingestion ([4]; STI 0.1%)	% Ingestion ([4]; STI 1%)
CN[C@H](Cc1ccccc1)C(=O)N1CCCC1C(=O)N[C@@H](CCCNC(=N)N)C(=O)c1nc2ccccc2s1 (stereo partly drawn) [Compound I, (S)-N-Methyl-D-phenylalanyl-N-[4-[(aminoiminomethyl)amino]-1-(2-benzothiazolylcarbonyl)butyl]-L-prolinamide]	reduced	reduced the ordered organization of the cell cortex	less staining was observed at the cytoplasmic membrane, and more at the nuclear membrane	dose-dependent decrease in phagocytosis	reduce microsphere ingestion	dramatically reduce the uptake of melanin	89.9 +/− 13.6%	–	–	–	–
SLIGRL [reference compound]	increased	induced actin polymerization around the cell cortex	increased and more diffused cytoplasmic membrane staining, and reduced nuclear membrane staining	increased phagocytosis	increased microsphere ingestion	dramatically increases the internalization of melanin	331.6 +/− 5.9%	increase in phagocytosis	–	–	–
B1	reduced	reduced the ordered organization of the cell cortex	less staining was observed at the cytoplasmic membrane, and more at the nuclear membrane	dose-dependent decrease in phagocytosis	reduce microsphere ingestion	dramatically reduce the uptake of melanin	56.06 +/− 12.4%	dose-response of decreased phagocytosis	76 +/− 15%	55 +/− 14%	41.6 +/− 11%
